Test results taken from publication PMC10504751, “Chalcone/1,3,4-Oxadiazole/Benzimidazole hybrids as novel anti-proliferative agents inducing apoptosis and inhibiting EGFR & BRAFV^600E” (BMC Chemistry, 2023).
“And” between values parts separate entries of the source, which are not always exact repeats. Equal entries are not always repeated. Where two headings read alike, the source gives them in different places.

Key:
[1] = system: A-549; test: Propidium iodide anti-proliferative assay; assay type: cell-based; conditions: Homo sapiens, A549; 48 h incubation; read-out: IC50 ± SEM A-549
Protocol: (§1) The propidium iodide (PI) tests^31, 32 were further used for assessment of the IC50 of all synthesized compounds and compared to Doxorubicin as a positive control against four cancer cell lines; pancreatic cancer cell line (Panc-1), epithelial line cancer cell (A-549), breast cancer cell line (MCF-7), and colon cancer cell line (HT-29).
(§2) Using the propidium iodide fluorescence assay with doxorubicin as the reference drug, IC50 of the 24 compounds 7a-x, was carried out according to a previously reported procedure^31, 32 against a panel of four human cancer cell lines; epithelial cancer cell line (A-549), breast cancer cell line (MCF-7), colon cancer cell line (HT-29) and pancreas cancer cell line (Panc-1). Compounds 7a-x were incubated with cancer cells for 2 days at different concentrations. See Appendix A.
(§3) To explore the antiproliferative potential of compounds propidium iodide fluorescence assay was performed using different cell lines (melanoma cancer cell line LOX-IMVI, pancreatic cancer cell line (Panc-1), epithelial line cancer cell (A-549), breast cancer cell line (MCF-7), and colon cancer cell line (HT-29). To calculate the total nuclear DNA, a fluorescent dye (propidium iodide, PI) is used which can attach to the DNA,^9,^10 thus offering a quick and precise technique. PI cannot pass through the cell membrane and its signal intensity can be considered as directly proportional to the quantity of cellular DNA. Cells whose cell membranes are damaged or have changed permeability are counted as dead ones. The assay was performed by seeding the cells of different cancer cell lines at a density of 3000-7500 cells/well (in 200µl medium) in culture plates followed by incubation for 24h at 37 °C in humidified 5% CO2/95% air atmospheric conditions. The medium was removed; the compounds were added to the plates at 10 µM concentrations (in 0.1% DMSO) in triplicates, followed by incubation for 48 h. DMSO (0.1%) was used as control. After incubation, medium was removed followed by the addition of PI (25 µl, 50µg/mL in water/medium) to each well of the plates. At -80 °C, the plates were allowed to freeze for 24 h, followed by thawing at 25 °C. A fluorometer (Polar-Star BMG Tech) was used to record the readings at excitation and emission wavelengths of 530 and 620 nm for each well. The percentage cytotoxicity of compounds was calculated using the following formula:
(§4) Where ATC= Absorbance of treated cells and AC= Absorbance of control. […]

[2] = system: HT-29; test: Propidium iodide anti-proliferative assay; assay type: cell-based; conditions: Homo sapiens, 48 h incubation, read-out: IC50 ± SEM HT-29
Protocol: as §1, §2, §3, §4

[3] = system: MCF-7; test: Propidium iodide anti-proliferative assay; assay type: cell-based; conditions: Homo sapiens, MCF7; 48 h incubation; read-out: IC50 ± SEM MCF-7
Protocol: as §1, §2, §3, §4

[4] = system: Panc-1; test: Propidium iodide anti-proliferative assay; assay type: cell-based; conditions: Homo sapiens, 48 h incubation, read-out: IC50 ± SEM Panc-1
Protocol: as §1, §2, §3, §4

[5] = biological target: T1, EGFR (Homo sapiens, UniProt P00533); test: EGFR-TK inhibitory assay; assay type: biochemical; conditions: for IC50: read-out: EGFR Inhibition IC50 ± SEM
T1 construct: EGFR cytoplasmic domain (EGFR-CD, amino acids 645–1186); His6 (N); made in house; host or cells: Sf-9 insect cells (baculovirus; pBlueBacHis2B / pFASTBacHTc)

[6] = biological target: BRAF^V600E; test: biochemical
Protocol: To further denature the protein, heat (70° C) was applied for 5 min. […] 10 µL of each reaction was loaded into the precast plates and electrophoresis was allowed to proceed. After completion of electrophoresis, the front part of the precast gel plate (holding hot ATP) was cut and afterwards cast-off. The dried gel was developed using a phosphor screen.

[7] = system: MOLT-4; test: NCI one-dose SRB anti-proliferative screen; assay type: cell-based, human; conditions: for inhibition at 10 µM: Homo sapiens, read-out: Cell growth inhibition %; for Growth Percent: 10 µM one dose
Protocol: (§5) The twenty-four synthesized compounds were submitted to the National Cancer Institute (NCI), USA. Eighteen hybrids 7a-h, 7k-r, 7u, and 7v were selected by NCI for one-dose assessment of their anti-proliferative activities at 10 µM dose by Sulforhodamine B colorimetric assay. The assessment was performed in 60 cell lines derived from nine tumor subpanels, comprising lung, leukemia, melanoma, colon, renal, CNS, prostate, breast, and ovarian cancer cell lines.
(§6) The methodology of the NCI anti-proliferative screening has been described in details elsewhere (http://www.dtp.nci.nih.gov).

[8] = system: HCT-116; test: NCI one-dose SRB anti-proliferative screen; assay type: cell-based, human; conditions: for Growth Percent: 10 µM one dose; for inhibition at 10 µM: Homo sapiens, read-out: Cell growth inhibition %
Protocol: as §5, §6

[9] = system: K-562; test: NCI one-dose SRB anti-proliferative screen; assay type: cell-based, human; conditions: for inhibition at 10 µM: Homo sapiens, K562, read-out: Cell growth inhibition %; for Growth Percent: 10 µM one dose
Protocol: as §5, §6

[10] = system: RXF 393; test: NCI one-dose SRB anti-proliferative screen; assay type: cell-based, human; conditions: for inhibition at 10 µM: Homo sapiens, read-out: Cell growth inhibition %
Protocol: as §5, §6

[11] = system: T-47D; test: NCI one-dose SRB anti-proliferative screen; assay type: cell-based, human; conditions: for inhibition at 10 µM: Homo sapiens, T47D, read-out: Cell growth inhibition %
Protocol: as §5, §6

[12] = system: UACC-257; test: NCI one-dose SRB anti-proliferative screen; assay type: cell-based; conditions: Homo sapiens, read-out: Cell growth inhibition %
In short: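 Using a fixed 10 µM dose, anti-proliferative activity is measured through sulforhodamine B binding, read colorimetrically, in one of sixty human tumour lines.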

[13] = system: Bcl-2 in MCF-7; test: Bcl-2 inhibition assay; conditions: for Bcl-2 Conc: MCF-7; for Bcl-2 Fold reduction: MCF-7, vs untreated control
Protocol: All reagents were thoroughly mixed without foaming before use. The microwells were washed twice with approximately 300 µL Wash Buffer per well with the thorough aspiration of microwell contents between washes. Care was taken not to scratch the surface of the microwells. After the last wash, the wells were emptied and microwell strips were tapped on an absorbent pad or paper towel to remove excess Wash Buffer. The microwell strips were used immediately after washing or placed upside down on a wet absorbent paper for not longer than 15 min. Wells were not allowed to dry. A total of 100 µL of Sample Diluent was added in duplicate to all standard wells and the blank wells. Standard (1:2 dilution) in duplicate was prepared ranging from 32 to 0.5 ng/mL. A total of 100 µL of Sample Diluent, in duplicate, was added to the blank wells. A total of 80 µL of Sample Diluent, in duplicate, was added to the sample wells. A total of 20 µL of each sample, in duplicate, was added to the designated wells. A total of 50 µL of diluted biotin was added, conjugated to all wells, including the blank wells. It was covered with a plate cover and incubated at room temperature on a microplate shaker at 100 rpm for 2 h. The plate cover was removed and the wells were emptied. Microwell strips were washed times as described in Step 2. A total of 100 µL of diluted Streptavidin-HRP was added to all wells, including the blank wells. It was covered with a plate cover and incubated at room temperature on a microplate shaker at 100 rpm for 1 h. The plate cover was removed and the wells were emptied. Microwell strips were washed three times, as described in Step 2. A total of 100 µL of mixed TMB Substrate Solution was pipetted into all wells, including the blanks. The microwell strips were incubated at room temperature (18 ◦C to 25 ◦C) for about 15 min, on a rotator set at 100 rpm. Direct exposure to intense light was avoided. The point at which the substrate reaction is stopped was determined by the ELISA reader. Many ELISA readers record absorbance only up to 2.0 O.D. Therefore, the color development within individual microwells was watched by the person running the assay, and the substrate reaction was stopped before positive wells were no longer properly detectable. The enzyme reaction was stopped by quickly pipetting 100 µL of Stop Solution into each well, including the blank wells. It was important that the Stop Solution was spread quickly and uniformly throughout the microwells to inactivate the enzyme completely. Results were read immediately after the Stop Solution was added or within one hour if the microwell strips were stored at 2–8 ◦C in the dark. The absorbance of each microwell was read on a spectrophotometer using 450 nm as the primary wavelength.

[14] = system: Caspase-8 in MCF-7 breast cancer cells; test: Caspase-8 assay; assay type: cell-based, human; conditions: for Caspase-8 Fold change: MCF-7, vs untreated control; for Caspase-8 Conc: MCF-7 breast cancer cells
[15] = system: BAX in MCF-7; test: BAX activation assay; conditions: for BAX Conc: MCF-7; for BAX Fold change: MCF-7, vs untreated control
Protocol: All reagents were brought to room temperature for at least 30 min before opening (except the human BAX-α Standard). Human BAX-α Standard solution was not be left at room temperature for more than 10 min. Duplicates of all standards, controls, and samples were run. The Assay Layout Sheet was used to determine the number of wells to be used, and any remaining wells were put with the desiccant back into the pouch, and the ziplock was sealed. Unused wells were stored at 4 ◦C. A total of 100 µL of Assay Buffer was pipetted into the S0 (0 pg/mL standard) wells. A total of 100 µL of Standards #1 through #6 was pipetted into the appropriate wells. A total of 100 µL of the samples was pipetted into the appropriate wells. The plate was gently tapped to mix the contents. The plate was sealed and incubated at room temperature on a plate shaker for 1 h at ~500 rpm. The contents of the wells were emptied and washed by adding 400 µL of wash solution to every well. The wash was repeated four more times for a total of five washes. After the final wash, the wells were emptied or aspirated and firmly the plate on a lint-free paper towel was tapped to remove any remaining wash buffer. A total of 100 µL of yellow antibody was pipetted into each well, except the Blank. The plate was sealed and incubated at room temperature on a plate shaker for 1 h at ~500 rpm. The contents of the wells were emptied and washed by adding 400 µL of wash solution to every well. The wash was repeated four more times for a total of five washes. After the final wash, the wells were emptied or aspirated, and the plate was firmly tapped on a lint-free paper towel to remove any remaining wash buffer. A total of 100 µL of blue Conjugate was added to each well, except the Blank. The plate was sealed and incubated at room temperature on a plate shaker for 30 min at ~500 rpm. The contents of the wells were emptied and washed by adding 400 µL of wash solution to every well. The wash was repeated four more times for a total of five washes. After the final wash, the wells were emptied or aspirated and the plate was firmly tapped on a lint-free paper towel to remove any remaining wash buffer. A total of 100 µL of Substrate Solution was pipetted into each well. It was incubated for 30 min at room temperature on a plate shaker at ~500 rpm. A total of 100 µL Stop Solution was pipetted into to each well. The plate reader was blanked against the Blank wells, and the optical density was read at 450 nm. The average net optical density (OD) bound for each standard and sample was calculated by subtracting the average Blank OD from the average OD for each standard and sample. Using linear graph paper, the Average Net OD for each standard versus BAX concentration in each standard were plotted. A straight line was approximated through the points. The concentration of BAX in the unknowns could be determined by interpolation.

[16] = system: Caspase-3 in MCF-7 breast cancer cells; test: Caspase-3 assay; conditions: for Caspase-3 Fold change: MCF-7, vs untreated control; for Caspase-3 Conc: MCF-7 breast cancer cells
Protocol: All reagents were allowed to reach room temperature before use. All liquid reagents were gently mixed before use. The number of 8-well strips needed for the assay was determined. These were inserted into the frame(s) for current use. A total of 100 µL of the Standard Diluent Buffer was added to the zero standard wells. Well(s) reserved for chromogen blank were left empty. A total of 100 µL of standards and controls or diluted samples was added to the appropriate microtiter wells. The sample dilution chosen was optimized for each experimental system. The side of the plate was gently tapped on to
mix. Wells were covered with a plate cover and incubated for 2 h at room temperature. The solution was thoroughly aspirated or decanted from the wells and the liquid was discarded; wells were washed four times. […] The side of the plate was gently tapped on to mix. The plate was covered with a plate cover and incubated for 1h at room temperature. The solution was thoroughly aspirated or decanted from wells and the liquid was discarded; wells were washed four times. A total of 100 µL Anti-Rabbit IgG HRP Working Solution was added to each well except the chromogen blank(s). The working dilution was prepared as described in Preparing IgG HRP. Wells were covered with the plate cover and incubated for 30 min at room temperature. The solution was thoroughly aspirated or decanted from the wells and the liquid was discarded. Wells were washed four times. A total of 100 µL of Stabilized Chromogen was added to each well. The liquid in the wells began to turn blue. It was incubated for 30 min at room temperature and in the dark. The incubation time for chromogen substrate was determined by the microtiter plate reader used. Many plate readers have the capacity to record a maximum optical density (O.D.) of 2.0. The O.D. values were monitored, and the substrate reaction was stopped before the O.D. of the positive wells exceeds the limits of the instrument. The O.D. values at 450 nm could only be read after the Stop Solution had been added to each well. A total of 100 µL of Stop Solution was added to each well. The side of the plate was gently tapped to mix. The solution in the wells changed from blue to yellow. The absorbance of each well was read at 450 nm, having blanked the plate reader against a chromogen blank composed of 100 µL each of Stabilized Chromogen and Stop Solution. The plate was read within 2 h after adding the Stop Solution. A curve fitting software was used to generate the standard curve.
The concentrations for unknown samples and controls from the standard curve were read. Value(s) obtained for sample(s) by the appropriate dilution factor were multiplied to correct for the dilution in step 3.

[17] = HCT-116, Colon cancer, NCI one dose
[18] = RXF 393, Renal cancer, NCI one dose
[19] = T-47D, Breast cancer, NCI one dose
[20] = UACC-257, Melanoma, NCI one dose

BRAF^V600E, sequence (P28028 whole entry V585E): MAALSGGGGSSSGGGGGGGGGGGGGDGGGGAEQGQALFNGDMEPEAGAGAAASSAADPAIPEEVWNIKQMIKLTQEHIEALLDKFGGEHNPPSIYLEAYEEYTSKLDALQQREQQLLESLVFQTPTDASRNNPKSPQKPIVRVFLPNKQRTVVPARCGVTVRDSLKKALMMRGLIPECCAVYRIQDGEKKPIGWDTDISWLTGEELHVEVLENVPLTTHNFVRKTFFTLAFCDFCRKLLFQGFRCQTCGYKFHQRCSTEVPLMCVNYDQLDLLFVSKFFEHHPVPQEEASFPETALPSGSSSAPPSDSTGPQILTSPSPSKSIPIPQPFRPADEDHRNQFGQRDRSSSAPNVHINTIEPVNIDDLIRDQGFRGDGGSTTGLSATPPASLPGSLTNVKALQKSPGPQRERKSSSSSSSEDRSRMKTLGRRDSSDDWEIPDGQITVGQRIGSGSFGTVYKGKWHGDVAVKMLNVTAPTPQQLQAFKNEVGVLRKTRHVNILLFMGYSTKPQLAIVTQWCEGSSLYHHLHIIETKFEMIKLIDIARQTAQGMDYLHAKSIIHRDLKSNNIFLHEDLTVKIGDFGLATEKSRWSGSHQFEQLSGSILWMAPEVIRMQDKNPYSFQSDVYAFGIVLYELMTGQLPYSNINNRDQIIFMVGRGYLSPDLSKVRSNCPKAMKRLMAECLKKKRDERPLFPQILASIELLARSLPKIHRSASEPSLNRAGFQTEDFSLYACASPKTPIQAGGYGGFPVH
T1 sequence (P00533 669-1210): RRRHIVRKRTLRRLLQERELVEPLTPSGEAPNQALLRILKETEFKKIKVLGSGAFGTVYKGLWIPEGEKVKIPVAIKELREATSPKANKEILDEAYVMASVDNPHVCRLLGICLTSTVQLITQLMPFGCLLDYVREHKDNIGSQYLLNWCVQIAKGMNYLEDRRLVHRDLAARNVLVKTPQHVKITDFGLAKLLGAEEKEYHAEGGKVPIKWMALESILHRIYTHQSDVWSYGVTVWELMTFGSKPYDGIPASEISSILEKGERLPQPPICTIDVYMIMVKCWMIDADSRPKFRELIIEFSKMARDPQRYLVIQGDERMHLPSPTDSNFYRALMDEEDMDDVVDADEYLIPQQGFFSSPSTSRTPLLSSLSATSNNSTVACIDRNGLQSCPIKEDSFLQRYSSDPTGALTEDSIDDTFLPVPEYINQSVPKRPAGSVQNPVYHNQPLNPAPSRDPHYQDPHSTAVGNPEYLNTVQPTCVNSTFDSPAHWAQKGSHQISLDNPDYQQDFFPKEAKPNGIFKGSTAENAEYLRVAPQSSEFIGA

SMILES: COc1cc(/C=C/C(=O)c2ccc(NC(=O)CSc3nnc(-c4ccc5[nH]c(-c6ccccc6)nc5c4)o3)cc2)cc(OC)c1OC [Compound 7e, 2-{5-[2-Phenyl-1 H-benzo[d]imidazol-5-yl]-1,3,4-oxadiazol-2-ylthio}-N-{4-[(E)-3-(3,4,5-trimethoxyphenyl)acryloyl]phenyl}acetamide]
- IC50 [1]: 1600 ± 300 nM
- IC50 [2]: 1950 ± 300 nM
- IC50 [3]: 1250 ± 80 nM
- IC50 [4]: 1700 ± 300 nM
- IC50 [5]: 1150 ± 200 nM
- IC50 [6]: 900 ± 100 nM
- inhibition at 10 µM ([7]; MOLT-4, Leukemia, NCI one dose): 35%
- Growth Percent ([7]; MOLT-4 (Leukemia)): 30%
- Growth Percent ([8]; HCT-116 (Colon Cancer)): 40.76%
- inhibition at 10 µM [8, 17]: 59.2%
- inhibition at 10 µM ([9]; K-562, Leukemia, NCI one dose): 41.7%
- Growth Percent ([9]; K-562 (Leukemia)): 58%
- inhibition at 10 µM [10, 18]: 107%
- Growth Percent ([10]; RXF 393 (Renal Cancer), 10 µM one dose): -6.89%
- inhibition at 10 µM [11, 19]: 11.1%
- inhibition at 10 µM [12, 20]: 12.4%

SMILES: COc1ccc(/C=C/C(=O)c2ccc(NC(=O)CSc3nnc(-c4ccc5[nH]c(-c6ccc(Cl)cc6)nc5c4)o3)cc2)cc1 [Compound 7h, 2-{5-[2-(4-Chlorophenyl)-1 H-benzo[d]imidazol-5-yl]-1,3,4-oxadiazol-2-ylthio}-N-{4-[(E)-3-(4-methoxyphenyl)acryloyl]phenyl}acetamide]
- IC50 [1]: 1950 ± 600 nM
- IC50 [2]: 2250 ± 600 nM
- IC50 [3]: 1750 ± 400 nM
- IC50 [4]: 2050 ± 500 nM
- IC50 [5]: 2300 ± 200 nM
- IC50 [6]: 2700 ± 300 nM
- inhibition at 10 µM ([7]; MOLT-4 (Leukemia), NCI one dose 10 µM): 35.4%
- inhibition at 10 µM ([8]; HCT-116 (Colon Cancer), NCI one dose 10 µM): 6.56%
- inhibition at 10 µM ([9]; K-562 (Leukemia), NCI one dose 10 µM): 12.7%
- inhibition at 10 µM ([10]; RXF 393 (Renal Cancer), NCI one dose 10 µM): 0%
- inhibition at 10 µM ([11]; T-47D (Breast Cancer), NCI one dose 10 µM): 22%
- inhibition at 10 µM ([12]; UACC-257 (Melanoma), NCI one dose 10 µM): 0%

SMILES: COc1ccc(-c2nc3cc(-c4nnc(SCC(=O)Nc5ccc(C(=O)/C=C/c6ccccc6)cc5)o4)ccc3[nH]2)cc1 [Compound 7k, 2-{5-[2-(4-Methoxyphenyl)-1 H-benzo[d]imidazol-5-yl]-1,3,4-oxadiazol-2-ylthio}-N-{4-[(E)-3-phenylacryloyl]phenyl}acetamide]
- IC50 [1]: 1200 ± 200 nM
- IC50 [2]: 1400 ± 200 nM
- IC50 [3]: 950 ± 80 nM
- IC50 [4]: 1300 ± 200 nM
- fold less potent than Erlotinib against EGFR [5]: approximately 7 fold
- IC50 [5]: 550 ± 100 nM
- Bcl-2 Conc [13]: 0.94 ng/mL and 0.940 ng/mL
- Bcl-2 Fold reduction [13]: 5.4 fold
- Caspase-8 Fold change [14]: 10 fold and 9.90 fold
- Caspase-8 Conc [14]: 1.680 ng/mL
- BAX Conc [15]: 279.50 pg/mL and 279.500 pg/mL
- BAX Fold change [15]: 33 fold and 33.0 fold
- IC50 [6]: 1700 ± 200 nM
- Caspase-3 Fold change [16]: 8 fold and 7.60 fold
- Caspase-3 Conc [16]: 501.60 ± 4.00 pg/mL
- inhibition at 10 µM ([7]; MOLT-4, Leukemia, NCI one dose): 53%
- Growth Percent ([7]; MOLT-4 (Leukemia)): 47%
- Growth Percent ([8]; HCT-116 (Colon Cancer)): 58.69%
- inhibition at 10 µM [8, 17]: 41.3%
- inhibition at 10 µM ([9]; K-562, Leukemia, NCI one dose): 44.6%
- Growth Percent ([9]; K-562 (Leukemia)): 55%
- inhibition at 10 µM [10, 18]: 37.9%
- inhibition at 10 µM [11, 19]: 58%
- Growth Percent ([11]; T-47D (Breast Cancer), 10 µM one dose): 42.05%
- inhibition at 10 µM [12, 20]: 0.49%

SMILES: COc1ccc(/C=C/C(=O)c2ccc(NC(=O)CSc3nnc(-c4ccc5[nH]c(-c6ccc(OC)cc6)nc5c4)o3)cc2)cc1 [Compound 7m, 2-{5-[2-(4-Methoxyphenyl)-1 H-benzo[d]imidazol-5-yl]-1,3,4-oxadiazol-2-ylthio}-N-{4-[(E)-3-(4-methoxyphenyl)acryloyl]phenyl}acetamide]
- IC50 [1]: 1400 ± 500 nM
- IC50 [2]: 1850 ± 400 nM
- IC50 [3]: 1200 ± 80 nM
- IC50 [4]: 1500 ± 200 nM
- IC50 [5]: 900 ± 100 nM
- Bcl-2 Conc [13]: 1.050 ng/mL
- Bcl-2 Fold reduction [13]: 4.9 fold
- Caspase-8 Fold change [14]: 7.90 fold
- Caspase-8 Conc [14]: 1.350 ng/mL
- BAX Conc [15]: 268.200 pg/mL
- BAX Fold change [15]: 31.5 fold
- IC50 [6]: 2200 ± 200 nM
- Caspase-3 Fold change [16]: 7.20 fold
- Caspase-3 Conc [16]: 473.60 ± 3.50 pg/mL
- inhibition at 10 µM ([7]; MOLT-4, Leukemia, NCI one dose): 36.9%
- inhibition at 10 µM [8, 17]: 0%
- inhibition at 10 µM ([9]; K-562, Leukemia, NCI one dose): 28.7%
- inhibition at 10 µM [10, 18]: 0%
- inhibition at 10 µM [11, 19]: 31.1%
- inhibition at 10 µM [12, 20]: 0%

SMILES: COc1ccc(-c2nc3cc(-c4nnc(SCC(=O)Nc5ccc(C(=O)/C=C/c6ccc(OC)c(OC)c6)cc5)o4)ccc3[nH]2)cc1 [Compound 7n, 2-{5-[2-(4-Methoxyphenyl)-1 H-benzo[d]imidazol-5-yl]-1,3,4-oxadiazol-2-ylthio}-N-{4-[(E)-3-(3,4-dimethoxyphenyl)acryloyl]phenyl}acetamide]
- IC50 [1]: 1900 ± 600 nM
- IC50 [2]: 2200 ± 600 nM
- IC50 [3]: 1650 ± 300 nM
- IC50 [4]: 2050 ± 500 nM
- IC50 [5]: 1400 ± 200 nM
- IC50 [6]: 3700 ± 200 nM
- inhibition at 10 µM ([7]; MOLT-4, Leukemia, NCI one dose): 35.7%
- Growth Percent ([8]; HCT-116 (Colon Cancer)): 57.96%
- inhibition at 10 µM [8, 17]: 42%
- inhibition at 10 µM ([9]; K-562, Leukemia, NCI one dose): 52.1%
- Growth Percent ([9]; K-562 (Leukemia)): 47%
- inhibition at 10 µM [10, 18]: 31.5%
- inhibition at 10 µM [11, 19]: 15.4%
- inhibition at 10 µM [12, 20]: 1.66%
